According to patent publication US5070210A, “Novel ketenimines as intermediates for insecticides” (ICI Americas Inc., priority 1990, dated 1991):

What was measured:
Format in all cases: in vivo
[1] = tested on: Aster Leafhopper [Macrosteles fascifrens (Stal)]; experiment: Aster leafhopper insecticidal test; conditions: adults/nymphs, percent in solution; 48 hours
Procedure: The compounds in Tables 1 and 2 above were tested for insecticidal activity using the following testing procedures. LC50 values, based on the results of these tests and calculated according to dosage-mortality curves, are expressed in Table 3.
Aster Leafhopper [Macrosteles fascifrens (Stal)]
Oat seedlings (Avena sp) were grown in a commercial potting soil in cups. When the plants were approximately 10 cm tall they were thinned to three plants per cup and dipped for 2-3 seconds in 50-50 acetone-water solutions of the test compounds. When the plants had dried, a clear plastic tube was placed over them and the bottom end pressed into the cup. Ten aster leafhopper adults/nymphs were then placed in each tube and the tops of the tubes covered with white organdy cloth. Mortality counts were made after 48 hours. Test concentrations ranged from 0.05% down to that at which 50% mortality occurred. The LC50 values are expressed below in Table 3 under the heading "LH" in terms of the percent of the test compound in the solution.

[2] = tested on: Maize weevil [Sitophilus Zeamais (Motschulsky)]; experiment: Maize weevil insecticidal test; conditions: adult weevils, percent in solution; 48 hours
Summary of the method: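 LC50, in percent of compound in solution, was derived from dosage-mortality curves after 48 h at about 25 °C. Ten adult weevils per container fed on four corn seeds briefly immersed in acetone:water (50:50) solutions of up to 0.01% and dried.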

[3] = tested on: Tobacco Budworm [Heliothis virescens (Fabricius)] eggs; experiment: Tobacco budworm egg test; conditions: 2-day old eggs, percent in solution
Summary of the method: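 Mortality of dipped eggs served as read-out, recorded after untreated controls hatched and began feeding. Treatments used acetone solutions from 0.1% downward, with eggs incubated at 78° F; LC50 is expressed as percent of compound in the solution.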

[4] = tested on: Cabbage Looper [Trichoplusia ni (Hubner)]; experiment: Cabbage looper insecticidal test; conditions: second-instar larvae, percent in solution; 3-5 days
Summary of the method: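 Steps: dilute compound in 50-50 acetone-water from 0.1% downward; immerse cotyledon pieces 2-3 s and dry; place in humid petri dishes with five second-instar larvae; record mortality at 3-5 days. Dosage-mortality curves yield LC50 as percent in solution.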

[5] = tested on: Housefly [Musca domestica]; experiment: Housefly insecticidal test; conditions: μg per 25 female flies; mortality after 48 hours
Summary of the method: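 LC50, as μg compound per 25 female flies, comes from dosage-mortality curves with doses from 100 μg downward. Residues were made by evaporating acetone plus 0.01% peanut oil in dishes, onto which 1-2-day-old females were caged; deaths were counted after 48 hours.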

| Structure (SMILES) | LC50, LH [1] [%] | LC50, MW [2] [%] | LC50, TBW, E (TBW-E) [3] [%] | LC50, CL [4] [%] | LC50, HF [5] [µg] |
| --- | --- | --- | --- | --- | --- |
| C=C(C)C(=Nc1ccc(Cl)cc1)OCc1cccc(Oc2ccccc2)c1 [Compound 6] | > 0.05 | > 0.01 | 0.015 | 0.02 | 17 |
| CCC(=Nc1ccc(Cl)cc1)OCc1cccc(Oc2ccccc2)c1 [Compound 11] | > 0.05 | > 0.01 | > 0.1 | 0.025 | 6 |
| CC(C)C(=Nc1cc(Cl)ccc1Cl)OCc1cccc(Oc2ccccc2)c1 [Compound 13] | > 0.05 | > 0.01 | > 0.1 | 0.014 | > 100 |
| CC(C)C(=Nc1ccccc1Cl)OCc1cccc(Oc2ccccc2)c1 [Compound 17] | > 0.05 | > 0.01 | > 0.1 | 0.03 | 75 |
| N#CC(=Nc1ccc(Cl)cc1)OCc1cccc(Oc2ccccc2)c1 [Compound 21] | > 0.05 | > 0.01 | > 0.1 | 0.02 | 7 |
| CC(C)(C)C(=Nc1ccc(Cl)c(Cl)c1)OCc1cccc(Oc2ccccc2)c1 [Compound 25] | > 0.05 | > 0.01 | > 0.1 | 0.01 | > 100 |
| FC(F)(F)C(=Nc1ccc(Cl)cc1)OCc1cccc(Oc2ccccc2)c1 [Compound 35] | > 0.05 | > 0.01 | 0.03 | 0.008 | 15 |
| CC(C)C(=Nc1ccccc1)OCc1cccc(Oc2ccccc2)c1 [Compound 43] | > 0.05 | > 0.01 | 0.05 | 0.018 | 7 |
| Fc1ccc(N=C(OCc2cccc(Oc3ccccc3)c2)C(F)F)cc1 [Compound 50] | > 0.05 | > 0.01 | > 0.05 | 0.02 | 43 |
| CC(C)C(=Nc1ccccc1C(F)(F)F)OCc1cccc(Oc2ccccc2)c1 [Compound 72] | > 0.05 | > 0.01 | > 0.1 | 0.08 | > 100 |
| CCS(=O)(=O)c1ccc(N=C(OCc2cccc(Oc3ccccc3)c2)C(C)C)cc1Cl [Compound 112] | > 0.05 | > 0.01 | > 0.1 | 0.025 | > 100 |
| Fc1ccc(N=C(OCc2cccc(Oc3ccccc3)c2)C(F)(F)C(F)(F)F)cc1Cl [Compound 117] | 0.0003 | > 0.01 | > 0.1 | 0.006 | 55 |
| CC(C)C(=Nc1ccc(F)c(Cl)c1)OCc1cccc(Oc2ccccc2F)c1 [Compound 119] | 0.0008 | > 0.01 | 0.048 | 0.0007 | 27 |
| CC1(C)C(C(=Nc2ccc(F)c(Cl)c2)OCc2cccc(Oc3ccccc3)c2)C1(C)C [Compound 124] | > 0.05 | > 0.01 | > 0.1 | 0.01 | 17 |
| CC(C)C(=Nc1cccc(Br)c1)OCc1cccc(Oc2ccccc2)c1 [Compound 128] | 0.003 | > 0.01 | 0.037 | 0.005 | 4.5 |
| CC(C)C(=Nc1ccccc1Br)OCc1cccc(Oc2ccccc2)c1 [Compound 132] | > 0.05 | > 0.01 | > 0.1 | 0.025 | 65 |
| CSc1ccc(N=C(OCc2cccc(Oc3ccccc3)c2)C(C)C)cc1 [Compound 142] | > 0.05 | > 0.01 | 0.1 | 0.005 | 15 |
| COc1cccc(N=C(OCc2cccc(Oc3ccccc3)c2)C(C)C)c1 [Compound 143] | 0.006 | > 0.01 | < 0.1 | 0.002 | 10 |
| COC(=O)c1ccc(N=C(OCc2cccc(Oc3ccccc3)c2)C(C)C)cc1 [Compound 151] | > 0.05 | > 0.01 | > 0.1 | 0.009 | 38 |
| CC(C)C(=Nc1ccc(C(C)(C)C)cc1)OCc1cccc(Oc2ccccc2)c1 [Compound 153] | 0.0005 | > 0.01 | 0.1 | 0.004 | > 100 |
| Cc1cccc(N=C(OCc2cccc(Oc3ccccc3)c2)C(C)C)c1 [Compound 155] | > 0.05 | > 0.01 | 0.06 | 0.004 | 9 |
| CC(C)C(=Nc1cccc(C(F)(F)F)c1)OCc1cc(Oc2ccc(F)cc2)ccn1 [Compound 528] | > 0.05 | > 0.01 | > 0.1 | 0.0075 |  |
| CC(C)C(=Nc1ccc(F)c(Cl)c1)OCc1cc(Oc2ccc(F)cc2)ccn1 [Compound 529] | > 0.05 | > 0.01 | > 0.1 | > 0.0025 |  |
